{"source": "patent US6028195A", "about": "“Piperazine derivatives and process for the preparation thereof” (Samjin Pharmaceutical Co., Ltd., priority 1996, dated 2000)", "assay_type_in_all_cases": "cell-based", "key": {"[1]": {"tested_on": "A549 (human non-small lung cell)", "assay": "SRB assay, in vitro antitumor effect against A549", "settings": "Homo sapiens", "method": "(§1) In vitro antitumor effect against human tumor cell lines.\n(§2) b. 5×10^3 ~2×10^4 cells were added into each well of 96-well plate and cultured in 5% CO2 incubator, at 37° C., for 24 hours.\n(§3) c. Each sample drug was dissolved in a little DMSO and diluted with the used medium to a prescribed concentration for experiments, wherein the final concentration of DMSO was controlled below 0.5%.\n(§4) d. Medium of each well cultured for 24 hours as above b. was removed by aspiration. Each 200 μl of drug samples prepared in c. was added into each well and the wells were cultured for 48 hours. Tz(time zero) plates were collected at the point of time drugs were added.\n(§5) e. According to the SRB assay method, cell fixing with TCA, staining with 0.4% SRB solution, washing with 1% acetic acid and elution of dye with 10 mM Tris solution were carried out on Tz plates and culture-ended plates, and then, OD values were measured at 520 nm.\n(§6) a. Time zero(Tz) value was determined with measuring the SRB protein value at the point of time drugs were added.\n(§7) b. Control value(C) was determined with the OD value of an well untreated with drug.\n(§8) c. Drug-treated test value(T) was determined with the OD value of drug-treated well.\n(§9) d. Effects of drugs were estimated with growth stimulation, net growth inhibition, net killing etc. calculated from Tz, C and T.\n(§10) e. If T≥Tz, cellular response function was calculated by 100×(T-Tz)/(C-Tz), and if T<Tz, by 100×(T-Tz)/Tz."}, "SKOV-3 (human ovarian)": {"tested_on": "SKOV-3 (human ovarian)", "assay": "SRB assay, in vitro antitumor effect against SKOV-3", "settings": "Homo sapiens; SK-OV-3, 48 hours; read-out: ED50 (the source's name)", "method": "as §1, §2, §3, §4, §5, §6, §7, §8, §9, §10"}, "SKMEL-2 (human melanoma)": {"tested_on": "SKMEL-2 (human melanoma)", "assay": "SRB assay, in vitro antitumor effect against SKMEL-2", "settings": "Homo sapiens; SK-MEL-2, 48 hours; read-out: ED50 (the source's name)", "method": "as §1, §2, §3, §4, §5, §6, §7, §8, §9, §10"}, "XF 498 (human CNS)": {"tested_on": "XF 498 (human CNS)", "assay": "SRB assay, in vitro antitumor effect against XF 498", "settings": "Homo sapiens, XF498; XF-498, 48 hours; read-out: ED50 (the source's name)", "method": "as §1, §2, §3, §4, §5, §6, §7, §8, §9, §10"}, "HCT-15 (human colon)": {"tested_on": "HCT-15 (human colon)", "assay": "SRB assay, in vitro antitumor effect against HCT-15", "settings": "Homo sapiens", "method": "as §1, §2, §3, §4, §5, §6, §7, §8, §9, §10"}, "[2]": {"settings": "A549, 48 hours, read-out: ED50 (the source's name)"}, "[3]": {"settings": "HCT 15, 48 hours, read-out: ED50 (the source's name)"}}, "note": "Where two headings read alike, the source gives them in different places."}
{"smiles": "COc1cc(OC)cc(N2CCN(C(=O)Nc3cc(C(C)=O)c(C)nc3OC)CC2)c1", "note": "[Example 46, 1-[(5-Acetyl-2-methoxy-6-methylpyridin-3-yl)amninocarbonyl]-4-(3,5-dimethoxyphenyl)piperazine]", "values": [{"measurement": "IC50", "setting": "[1]; [2]", "value": 0.21, "unit": "µg/mL"}, {"measurement": "IC50", "setting": "SKOV-3 (human ovarian)", "value": 0.12, "unit": "µg/mL"}, {"measurement": "IC50", "setting": "SKMEL-2 (human melanoma)", "value": 0.08, "unit": "µg/mL"}, {"measurement": "IC50", "setting": "XF 498 (human CNS)", "value": 0.14, "unit": "µg/mL"}, {"measurement": "IC50", "setting": "HCT-15 (human colon); [3]", "value": 0.16, "unit": "µg/mL"}]}
{"smiles": "COc1nc(C)c(C(C)=O)cc1NC(=O)N1CCN(c2cc(C)cc(C)c2)CC1", "note": "[Example 47, 1-[(5-Acetyl-2-methoxy-6-methylpyridin-3-yl)aminocarbonyl]-4-(3,5-dimethylphenyl)piperazine]", "values": [{"measurement": "IC50", "setting": "[1]; [2]", "value": 0.92, "unit": "µg/mL"}, {"measurement": "IC50", "setting": "SKOV-3 (human ovarian)", "value": 0.62, "unit": "µg/mL"}, {"measurement": "IC50", "setting": "SKMEL-2 (human melanoma)", "value": 0.47, "unit": "µg/mL"}, {"measurement": "IC50", "setting": "XF 498 (human CNS)", "value": 0.64, "unit": "µg/mL"}, {"measurement": "IC50", "setting": "HCT-15 (human colon); [3]", "value": 0.81, "unit": "µg/mL"}]}
{"smiles": "COc1cc(OC)cc(N2CCN(C(=S)Nc3cc(C(C)=O)c(C)nc3OC)CC2)c1", "note": "[Example 53, 1-[(5-Acetyl-2-methoxy-6-methylpyridin-3-yl)aminothiocarbonyl]-4-(3,5-dimethoxyphenyl)piperazine]", "values": [{"measurement": "IC50", "setting": "[1]; [2]", "value": 0.47, "unit": "µg/mL"}, {"measurement": "IC50", "setting": "SKOV-3 (human ovarian)", "value": 0.47, "unit": "µg/mL"}, {"measurement": "IC50", "setting": "SKMEL-2 (human melanoma)", "value": 0.64, "unit": "µg/mL"}, {"measurement": "IC50", "setting": "XF 498 (human CNS)", "value": 0.67, "unit": "µg/mL"}, {"measurement": "IC50", "setting": "HCT-15 (human colon); [3]", "value": 0.71, "unit": "µg/mL"}]}
{"smiles": "COc1cc(OC)cc(N2CCN(C(=S)Nc3cc(C(C)O)c(C)nc3OC)CC2)c1", "note": "(centres unmarked) [Example 63, 1-{[5-(1-Hydroxyethyl)-2-methoxy-6-methylpyridin-3-yl]aminothiocarbonyl}-4-(3,5-dimethoxyphenyl)piperazine]", "values": [{"measurement": "IC50", "setting": "[1]; [2]", "value": 0.04, "unit": "µg/mL"}, {"measurement": "IC50", "setting": "SKOV-3 (human ovarian)", "value": 0.1, "unit": "µg/mL"}, {"measurement": "IC50", "setting": "SKMEL-2 (human melanoma)", "value": 0.11, "unit": "µg/mL"}, {"measurement": "IC50", "setting": "XF 498 (human CNS)", "value": 0.03, "unit": "µg/mL"}, {"measurement": "IC50", "setting": "HCT-15 (human colon); [3]", "value": 0.07, "unit": "µg/mL"}]}
{"smiles": "COc1nc(C)c(C(C)O)cc1NC(=S)N1CCN(c2cc(C)cc(C)c2)CC1", "note": "(centres unmarked) [Example 64, 1-{[5-(1-Hydroxyethyl)-2-methoxy-6-methylpyridin-3-yl]aminothiocarbonyl}-4-(3,5-dimethylphenyl)piperazine]", "values": [{"measurement": "IC50", "setting": "[1]; [2]", "value": 0.42, "unit": "µg/mL"}, {"measurement": "IC50", "setting": "SKOV-3 (human ovarian)", "value": 0.56, "unit": "µg/mL"}, {"measurement": "IC50", "setting": "SKMEL-2 (human melanoma)", "value": 0.52, "unit": "µg/mL"}, {"measurement": "IC50", "setting": "XF 498 (human CNS)", "value": 0.23, "unit": "µg/mL"}, {"measurement": "IC50", "setting": "HCT-15 (human colon); [3]", "value": 0.37, "unit": "µg/mL"}]}
{"smiles": "C=Cc1cc(NC(=O)N2CCN(c3cc(F)cc(F)c3)CC2)c(OC)nc1C", "note": "[Example 75, 1-[(2-Methoxy-6-methyl-5-vinylpyridin-3-yl)aminocarbonyl]-4-(3,5-difluorophenyl)piperazine]", "values": [{"measurement": "IC50", "setting": "[1]; [2]", "value": 0.19, "unit": "µg/mL"}, {"measurement": "IC50", "setting": "SKOV-3 (human ovarian)", "value": 0.09, "unit": "µg/mL"}, {"measurement": "IC50", "setting": "SKMEL-2 (human melanoma)", "value": 0.09, "unit": "µg/mL"}, {"measurement": "IC50", "setting": "XF 498 (human CNS)", "value": 0.13, "unit": "µg/mL"}, {"measurement": "IC50", "setting": "HCT-15 (human colon); [3]", "value": 0.12, "unit": "µg/mL"}]}
{"smiles": "COc1nc2ccccc2cc1NC(=O)N1CCN(c2cc(Cl)cc(Cl)c2)CC1", "note": "[Example 85, 1-[(2-Methoxyquinolin-3-yl)aminocarbonyl]-4-(3,5-dichlorolphenyl)piperazine]", "values": [{"measurement": "IC50", "setting": "[1]; [2]", "value": 0.048, "unit": "µg/mL"}, {"measurement": "IC50", "setting": "SKOV-3 (human ovarian)", "value": 0.117, "unit": "µg/mL"}, {"measurement": "IC50", "setting": "SKMEL-2 (human melanoma)", "value": 0.039, "unit": "µg/mL"}, {"measurement": "IC50", "setting": "XF 498 (human CNS)", "value": 0.104, "unit": "µg/mL"}, {"measurement": "IC50", "setting": "HCT-15 (human colon); [3]", "value": 0.1, "unit": "µg/mL"}]}
{"smiles": "COc1nc2ccccc2cc1NC(=O)N1CCN(c2cccc(Cl)c2)CC1", "note": "[Example 88, 1-[(2-Methoxyquinolin-3-yl)aminocarbonyl]-4-(3-chlorophenyl)piperazine]", "values": [{"measurement": "IC50", "setting": "[1]; A549, 48 h, read-out: ED50", "value": 0.014, "unit": "µg/mL"}, {"measurement": "IC50", "setting": "SKOV-3 (human ovarian)", "value": 0.043, "unit": "µg/mL"}, {"measurement": "IC50", "setting": "SKMEL-2 (human melanoma)", "value": 0.02, "unit": "µg/mL"}, {"measurement": "IC50", "setting": "XF 498 (human CNS)", "value": 0.009, "unit": "µg/mL"}, {"measurement": "IC50", "setting": "HCT-15 (human colon); HCT-15, 48 h, read-out: ED50", "value": 0.011, "unit": "µg/mL"}]}
{"smiles": "CCN(C(=O)N1CCN(c2cc(OC)cc(OC)c2)CC1)c1cc2ccccc2nc1OC", "note": "[Example 99, 1-[N-Ethyl-N-(2-methoxyquinolin-3-yl)aminocarbonyl]-4-(3,5-dimethoxyphenyl)piperazine]", "values": [{"measurement": "IC50", "setting": "[1]; [2]", "value": 0.43, "unit": "µg/mL"}, {"measurement": "IC50", "setting": "SKOV-3 (human ovarian)", "value": 0.41, "unit": "µg/mL"}, {"measurement": "IC50", "setting": "SKMEL-2 (human melanoma)", "value": 0.4, "unit": "µg/mL"}, {"measurement": "IC50", "setting": "XF 498 (human CNS)", "value": 0.52, "unit": "µg/mL"}, {"measurement": "IC50", "setting": "HCT-15 (human colon); [3]", "value": 0.36, "unit": "µg/mL"}]}
{"smiles": "COc1cc(OC)cc(N2CCN(C(=O)N(c3cc4ccccc4nc3OC)C(C)C)CC2)c1", "note": "[Example 100]", "values": [{"measurement": "IC50", "setting": "[1]; [2]", "value": 4.54, "unit": "µg/mL"}, {"measurement": "IC50", "setting": "SKOV-3 (human ovarian)", "value": 3.02, "unit": "µg/mL"}, {"measurement": "IC50", "setting": "SKMEL-2 (human melanoma)", "value": 3.47, "unit": "µg/mL"}, {"measurement": "IC50", "setting": "XF 498 (human CNS)", "value": 0.66, "unit": "µg/mL"}, {"measurement": "IC50", "setting": "HCT-15 (human colon); [3]", "value": 4.21, "unit": "µg/mL"}]}
{"smiles": "COc1nc2ccccc2cc1N(C)C(=O)N1CCN(c2cc(C)cc(C)c2)CC1", "note": "[Example 103, 1-[N-(2-Methoxyquinolin-3-yl)-N-methylaminocarbonyl]-4-(3,5-dimethylphenyl)piperazine]", "values": [{"measurement": "IC50", "setting": "[1]; [2]", "value": 0.52, "unit": "µg/mL"}, {"measurement": "IC50", "setting": "SKOV-3 (human ovarian)", "value": 0.46, "unit": "µg/mL"}, {"measurement": "IC50", "setting": "SKMEL-2 (human melanoma)", "value": 0.49, "unit": "µg/mL"}, {"measurement": "IC50", "setting": "XF 498 (human CNS)", "value": 0.36, "unit": "µg/mL"}, {"measurement": "IC50", "setting": "HCT-15 (human colon); [3]", "value": 0.33, "unit": "µg/mL"}]}
{"smiles": "COc1cc(OC)cc(N2CCN(C(=S)Nc3cc4ccccc4nc3OC)CC2)c1", "note": "[Example 109, 1-[(2-Methoxyquinolin-3-yl)aminothiocarbonyl]-4-(3,5-dimethoxyphenyl)piperazine]", "values": [{"measurement": "IC50", "setting": "[1]; [2]", "value": 0.47, "unit": "µg/mL"}, {"measurement": "IC50", "setting": "SKOV-3 (human ovarian)", "value": 0.91, "unit": "µg/mL"}, {"measurement": "IC50", "setting": "SKMEL-2 (human melanoma)", "value": 0.86, "unit": "µg/mL"}, {"measurement": "IC50", "setting": "XF 498 (human CNS)", "value": 0.53, "unit": "µg/mL"}, {"measurement": "IC50", "setting": "HCT-15 (human colon); [3]", "value": 0.49, "unit": "µg/mL"}]}
{"smiles": "COc1nc2ccccc2cc1NC(=S)N1CCN(c2cc(C)cc(C)c2)CC1", "note": "[Example 110, 1[(2-Methoxyquinolin-3-yl)aminothiocarbonyl]-4-(3,5-dimethylphenyl)piperazine]", "values": [{"measurement": "IC50", "setting": "[1]; [2]", "value": 0.52, "unit": "µg/mL"}, {"measurement": "IC50", "setting": "SKOV-3 (human ovarian)", "value": 1.06, "unit": "µg/mL"}, {"measurement": "IC50", "setting": "SKMEL-2 (human melanoma)", "value": 0.97, "unit": "µg/mL"}, {"measurement": "IC50", "setting": "XF 498 (human CNS)", "value": 0.81, "unit": "µg/mL"}, {"measurement": "IC50", "setting": "HCT-15 (human colon); [3]", "value": 0.69, "unit": "µg/mL"}]}
